Test results taken from patent US10494402B2, “Peptides that stimulate subcutaneous adipogenesis” (The Regents of the University of California, priority 2012, dated 2019).
Entries after “also recorded” stand apart in the source; their conditions may differ.

Experiments:
Format in all cases: cell-based
[1] = test system: rat mesenchymal stem cells; test: Adipogenesis Assay 1 (IBMX/dexamethasone priming, peptide replaces insulin; Oil Red O or BODIPY); conditions: for Fold adipogenic induction vs. negative control / Specific activity (activity/1000 daltons) / adipogenesis, absorption of Oil Red O at 520 nm, fold increase compared with negative control / adipogenesis, number of fat droplets relative to negative controls (image analysis): Assay 1; for adipogenesis, absorption of Oil Red O at 520 nm, fold increase compared with negative control / adipogenesis, number of fat droplets relative to negative controls (image analysis): rat bone marrow mesenchymal stem cells, n=3; for adipogenesis, absorption of Oil Red O at 520 nm, fold increase compared with negative control: 0.1-25 μg
Description: Reagents: (1) 3-isobutyl-1-methylxanthine (IBMX) solution: 0.5M in DMSO; (2) Insulin solution: 10 mg/mL recombinant human insulin; (3) Dexamethasone solution in 10 mM in ethanol; (4) Oil Red O (0.36% in 60% isopropanol) or BODIPY dye (BODIPY 493/503 (4,4-difluoro-1,3,5,7-tetramethyl-4-bora-3a,4a-diaza-s-indacene-8-propionic acid, succinimidyl ester) from Invitrogen at 4-10 μM).
Adipogenesis Initiation Media: mesenchymal stem cell expansion media/0.5 mM IBMX/1 μM dexamethasone. Mesenchymal stem cell expansion media is commercially available from Millipore. The IBMX Solution was diluted 1:1000 and the Dexamethasone Solution was diluted 1:10,000 in expansion media containing antibiotics and antimycotics. The prepared media was stored at 4° C.
Adipogenesis Progression Media for positive control: mesenchymal stem cell expansion media/10 μg/mL insulin. The Insulin Solution was diluted 1:1000 in the expansion media and stored at 4° C.
Experimental Adipogenesis Progression Media: mesenchymal stem cell expansion media/1-100 μg/mL RHAMM antagonist peptides.
Adipogenesis Maintenance Media: mesenchymal stem cell expansion media containing antibiotics and antimycotics.
Negative Control Media: DMEM/10% normal calf serum.
Pre-adipocyte stem cells including bone marrow mesenchymal stem cells and fibroblasts including reticular and papillary dermal fibroblasts were propagated using standard tissue culture methods. Cells were trypsinized to remove the cells from the substratum. The trypsin was neutralized and cells were counted using a hemocytometer. Cells were resuspended at 30,000 cells/mL in expansion media. […] of cell suspension was plated per well of 24-well plate, with several wells left empty for blank well staining.
Cells were incubated for 1-2 days until they reached confluency. Approximately 1.8 mL of media was removed from each well and replaced with 2 mL Adipogenesis Initiation Media. For negative control wells, expansion media only was used at this step and for subsequent media changes. For all media changes, media was replaced as gently as possible to avoid disturbing the monolayer.
Cells were incubated for 48 hours at 37° C., 5% CO2. 2 mL media was removed from each well, and replaced with 2 mL either positive control or experimental Adipogenesis Progression Media per well. Cells were again incubated for 48 hours at 37° C., 5% CO2. 2 mL of media was removed from each well and replaced with 2 mL Adipogenesis Maintenance Media per well. In addition, media was added to the empty wells reserved for blank well staining Cells were incubated for at least 48 hours at 37° C., 5% CO2. Media was replaced every 48-72 hours. Accumulation of intracellular lipid droplets continued for at least 5 days.
For quantification of Oil Red O staining, media was removed and cells were washed twice with PBS, using care to gently add the PBS. 0.5 mL Oil Red O solution was added per well of 24-well plate, including to the wells lacking cells, but containing media. Cells were incubated for 15 minutes at room temperature. The staining solution was then removed and wells were washed three times with 1 mL of phosphate buffered saline (PBS). In some experiments, following removal of the last wash, stained plates were scanned or photographed.
Adipogenesis was quantified using a spectrophotometer or fluorometer. 0.25 mL Dye Extraction Solution (isopropyl alcohol) was added per well, and the plate was set on an orbital shaker or platform rocker for 15-30 minutes. Extracted dye was transferred into a cuvette and absorbance was read in a spectrophotometer at visible range for oil red 0 or transferred to a 96-well plate and quantified in a plate reader.
For quantification of BODIPY dye uptake, media was removed and cells were washed twice with PBS, using care to gently add the PBS. Cells were then fixed in 3% paraformaldehyde, washed in PBS then incubated for 1 hour in the dark with the BODIPY solution, prepared in PBS. […]

[2] = test system: human reticular fibroblasts (HRF); test: Transdifferentiation of primary human dermal fibroblasts, reticular; conditions: 5 μg/ml, peptide replaced insulin
Description: The B peptide and the KSEVSK 6-mer were also tested for their adipogenic effect on primary human dermal fibroblasts from the upper (papillary) and lower (reticular) dermal layers. The primary human fibroblasts were obtained from dermatome sections of biopsies from human volunteers. Cells were cultured and exposed to adipogenic medium. In these experiments, the B peptide and the KSEVSK 6-mer replaced insulin as the adipogenic stimulus. The peptides were used at a concentration of 5 μg/ml. Adipogenesis was assessed by Oil Red O staining. […] White arrows show fat droplets.

[3] = test system: human adipose-derived stem cells (h-ADSCs); test: Differentiation of human adipose-derived stem cells (h-ADSCs); conditions: for adipogenesis, absorbance of extracted Oil Red O: 5 μg/ml in adipogenic cocktail in the absence of insulin and PPARγ agonist, two weeks; for adipogenesis (micrographs) in the absence of PPARγ agonist / adipogenesis (micrographs) in the presence of PPARγ agonist: B peptide 5 μg/ml, 6-mer 5 μg/ml or 20 μg/ml
Source text: The Adipocyte Differentiation Medium contained DMEM/Ham's F-12 (1:1 v/v), HEPES pH 7.4, fetal bovine serum, biotin, penicillin, streptomcyin, amphotericin B, pantothenate, human insulin, dexamethasone, isobutylmethylxanthine (IBMX) and a PPARγ agonist. This positive stimulus was used as the positive control. […] The upper right panel and the lower left panel of FIG. 14 provide two different fields of view of the h-ASDCs exposed to the adipogenic cocktail at 4× magnification.
Monolayers that were maintained in Preadipocyte Medium only (ZenBio catalog no. PM-1, containing DMEM/Ham's F-12 (1:1 v/v), HEPES 7.4, fetal bovine serum, penicillin, streptomcyin, and amphotericin B) or monolayers that were exposed to the adipogenic cocktail without insulin and PPARγ agonist were both used as negative controls. […] The negative controls shown in FIG. 15 were exposed to Preadipocyte Medium only. […] The adipogenic peptides (peptide B and the KSEVSK 6-mer) were mixed into adipogenic cocktail that lacked the PPARγ agonist and/or insulin and used as the experimental condition.
To quantify the adipogenic activity of the KSEVSK 6-mer (SEQ ID NO: 3) and the B peptide (SEQ ID NO: 2), h-ADSCs were exposed to 5 μg/ml of these peptides in the adipogenic cocktail in the absence of insulin and PPARγ agonist). The experiment was terminated two weeks after the addition of adipogenic mixtures. At this time, photographs of monolayers were taken and the lipid droplet accumulation was quantified by measuring the absorbance of extracted Oil Red 0. […] The peptides stimulated adipogenesis to a similar extent when the PPARγ agonist alone or both the PPARγ agonist and insulin were deleted from the adipogenic cocktail (not shown).
In further studies using h-ADSCs, two different protocols were used. In the first of these protocols, h-ADSCs were exposed to the adipogenic cocktail plus the KSEVSK 6-mer (SEQ ID NO: 3) or B peptide (SEQ ID NO: 2) at concentrations of 5 μg/ml or 20 μg/ml. […] In the second of these protocols, h-ADSCs were exposed to adipogenic cocktail in which the PPARγ agonist was replaced with either the KSEVSK 6-mer or the B peptide at concentrations of 5 μg/ml or 20 μg/ml. […] Statistical analysis were performed compared to negative control. Data presented as mean±standard error (n=3).

Row | Substance | Fold adipogenic induction vs. negative control [1] | Specific activity (activity/1000 daltons) [1] [activity/1000 daltons] | amount at which a maximum adipogenic effect was obtained ([1]; bone marrow mesenchymal stem cells, depending upon the screening assay used (assay 1 or 2)) [µg] | adipogenesis, absorption of Oil Red O at 520 nm, fold increase compared with negative control [1] | adipogenesis, number of fat droplets relative to negative controls (image analysis) [1] | transdifferentiation into adipocytes, Oil Red O staining ([2]; listed as B peptide) | adipogenesis, absorbance of extracted Oil Red O [3] | adipogenesis (micrographs) in the absence of PPARγ agonist [3] | adipogenesis (micrographs) in the presence of PPARγ agonist [3] | specific activity compared among peptide B and 9-, 7-, 6-mer ([1]; calculated from adipogenesis data of assays 1 and 2) | adipogenic activity of truncation fragments ([1]; truncation experiments, assays 1 and 2, FIGS. 7, 8, 9) | transdifferentiation into adipocytes, Oil Red O staining [2] | adipogenesis (lipid droplets) compared with positive control ([3]; two weeks after initiation, peptide in cocktail lacking PPARγ agonist and/or insulin)
1 | KLKDENSQLKSEVSK [peptide B] | 1.85 | 1.0 | 1 to 5 | significantly stimulated adipogenesis as compared to the negative control | significantly stimulated adipogenesis as compared to the negative control | stimulated the transdifferentiation; also recorded: stimulated the trans-differentiation | strongly promoted adipogenesis compared to the negative control (p<0.05) | underwent adipogenesis | underwent adipogenesis | – | – | – | –
2 | KSEVSK [KSEVSK 6-mer] | 2.83 | 3.76 | – | significantly stimulated adipogenesis as compared to the negative control | significantly stimulated adipogenesis as compared to the negative control | – | strongly promoted adipogenesis compared to the negative control (p<0.05) | underwent adipogenesis | underwent adipogenesis | highest specific activity | also found to be adipogenic | stimulated the transdifferentiation | more effective at promoting adipogenesis than the positive control
